Reference: patent publication US10100058B2, “Fused heterocyclic compounds as CaM kinase inhibitors” (Gilead Sciences, Inc., priority 2016, dated 2018)

Biological target: recombinant CaMKIIδ (Homo sapiens (Human), UniProt Q13557)
Test: CaMKIIδ biochemical assay (HTRF)
Conditions: 10 pM CaMKIIδ, 110 nM calmodulin, 12 μM ATP, 1 hour; read-out: CAMKIID-HTRF-384V2 (IC50 - nM)
Experimental: CaMKIIδ Biochemical Assay
The biochemical activity of recombinant CaMKIIδ was measured by monitoring the phosphorylation of a target peptide using Homogenous Time Resolved Fluorescence (HTRF) technology from CisBio Bioassays.

| Structure (SMILES) | IC50 [nM] |
| --- | --- |
| CCN(CC)[C@@H](C)CNC(=O)c1cc(-c2cnn3ccc(-c4cncnc4)nc23)nc(N2CC(OC)C2)c1 [Example 166, (S)—N-(2-(diethylamino)propyl)-2-(3-methoxyazetidin-1-yl)-6-(5-(pyrimidin-5-yl)pyrazolo[1,5-a]pyrimidin-3-yl)isonicotinamide] | 26 |
| C[C@H](N)CNC(=O)c1cc(-c2cnn3ccc(-c4cccs4)nc23)nc(N2CC(O)C2)c1 [Example 168, (S)—N-(2-aminopropyl)-2-(3-hydroxyazetidin-1-yl)-6-(5-(thiophen-2-yl)pyrazolo[1,5-a]pyrimidin-3-yl)isonicotinamide] | 18.1 |
| CCN[C@@H](C)CNC(=O)c1cc(-c2cnn3ccc(-c4cccs4)nc23)nc(N2CC(O)C2)c1 [Example 169, (S)—N-(2-(ethylamino)propyl)-2-(3-hydroxyazetidin-1-yl)-6-(5-(thiophen-2-yl)pyrazolo[1,5-a]pyrimidin-3-yl)isonicotinamide] | 9.11 |
| COC1CN(c2cc(C(=O)NCC3(N)CCC3)cc(-c3cnn4ccc(-c5cccs5)nc34)n2)C1 [Example 170, N-((1-aminocyclobutyl)methyl)-2-(3-methoxyazetidin-1-yl)-6-(5-(thiophen-2-yl)pyrazolo[1,5-a]pyrimidin-3-yl)isonicotinamide] | 19.9 |
| COC1CN(c2cc(C(=O)NC[C@H](C)N)cc(-c3cnn4ccc(-c5cccs5)nc34)n2)C1 [Example 171, (S)—N-(2-aminopropyl)-2-(3-methoxyazetidin-1-yl)-6-(5-(thiophen-2-yl)pyrazolo[1,5-a]pyrimidin-3-yl)isonicotinamide] | 18.8 |
| COC1CN(c2cc(C(=O)NC[C@H](C)N)cc(-c3cnn4ccc(-c5ccccc5)nc34)n2)C1 [Example 172, (S)—N-(2-aminopropyl)-2-(3-methoxyazetidin-1-yl)-6-(5-phenylpyrazolo[1,5-a]pyrimidin-3-yl)isonicotinamide] | 85.3 |
| CCN[C@@H](C)CNC(=O)c1cc(-c2cnn3ccc(-c4cccs4)nc23)nc(N2CC(OC)C2)c1 [Example 173, (S)—N-(2-(ethylamino)propyl)-2-(3-methoxyazetidin-1-yl)-6-(5-(thiophen-2-yl)pyrazolo[1,5-a]pyrimidin-3-yl)isonicotinamide] | 13 |
| CCN[C@@H](C)CNC(=O)c1cc(-c2cnn3ccc(-c4ccccc4)nc23)nc(N2CC(OC)C2)c1 [Example 174, (S)—N-(2-(ethylamino)propyl)-2-(3-methoxyazetidin-1-yl)-6-(5-phenylpyrazolo[1,5-a]pyrimidin-3-yl)isonicotinamide] | 35.2 |
| CCN(CC)[C@@H](C)CNC(=O)c1cc(-c2cnn3ccc(-c4ccns4)nc23)nc(N2CC(OC)C2)c1 [Example 176, (S)—N-(2-(diethylamino)propyl)-2-(5-(isothiazol-5-yl)pyrazolo[1,5-a]pyrimidin-3-yl)-6-(3-methoxyazetidin-1-yl)isonicotinamide] | 0.29 |
| CCN(CC)[C@@H](C)CNC(=O)c1cc(NS(=O)(=O)C(C)C)nc(-c2cnn3ccc(-c4cccs4)nc23)c1 [Example 178, (S)—N-(2-(diethylamino)propyl)-2-((1-methylethyl)sulfonamido)-6-(5-(thiophen-2-yl)pyrazolo[1,5-a]pyrimidin-3-yl)isonicotinamide] | 1.25 |
| CCN(CC)[C@@H](C)CNC(=O)c1cc(NS(=O)(=O)CC)nc(-c2cnn3ccc(-c4cccs4)nc23)c1 [Example 179, (S)—N-(2-(diethylamino)propyl)-2-(ethylsulfonamido)-6-(5-(thiophen-2-yl)pyrazolo[1,5-a]pyrimidin-3-yl)isonicotinamide] | 0.72 |
| CCN(CC)[C@@H](C)CNC(=O)c1cc(NS(=O)(=O)C2CC2)nc(-c2cnn3ccc(-c4cccs4)nc23)c1 [Example 180, (S)-2-(cyclopropanesulfonamido)-N-(2-(diethylamino)propyl)-6-(5-(thiophen-2-yl)pyrazolo[1,5-a]pyrimidin-3-yl)isonicotinamide] | 0.47 |
| CCN(CC)[C@@H](C)CNC(=O)c1cc(NS(C)(=O)=O)nc(-c2cnn3ccc(-c4cccs4)nc23)c1 [Example 181, (S)—N-(2-(diethylamino)propyl)-2-(methylsulfonamido)-6-(5-(thiophen-2-yl)pyrazolo[1,5-a]pyrimidin-3-yl)isonicotinamide] | 0.64 |
| CCNC(=O)Nc1cc(C(=O)NC[C@H](C)N(CC)CC)cc(-c2cnn3ccc(-c4cccs4)nc23)n1 [Example 185, (S)—N-(2-(diethylamino)propyl)-2-(3-ethylureido)-6-(5-(thiophen-2-yl)pyrazolo[1,5-a]pyrimidin-3-yl)isonicotinamide] | 0.11 |
| CCOC(=O)Nc1cc(C(=O)NC[C@H](C)N(CC)CC)cc(-c2cnn3ccc(-c4cccs4)nc23)n1 [Example 186, (S)-ethyl (4-((2-(diethylamino)propyl)carbamoyl)-6-(5-(thiophen-2-yl)pyrazolo[1,5-a]pyrimidin-3-yl)pyridin-2-yl)carbamate] | 0.23 |
| CCN(CC)[C@@H](C)CNC(=O)c1cc(NCC2(C)COC2)nc(-c2cnn3ccc(-c4cccs4)nc23)c1 [Example 191, (S)—N-(2-(diethylamino)propyl)-2-(((3-methyloxetan-3-yl)methyl)amino)-6-(5-(thiophen-2-yl)pyrazolo[1,5-a]pyrimidin-3-yl)isonicotinamide] | 0.2 |
| CCN(CC)[C@@H](C)CNC(=O)c1cc(NCC2COC2)nc(-c2cnn3ccc(-c4cccs4)nc23)c1 [Example 192, (S)—N-(2-(diethylamino)propyl)-2-((oxetan-3-ylmethyl)amino)-6-(5-(thiophen-2-yl)pyrazolo[1,5-a]pyrimidin-3-yl)isonicotinamide] | 141 |

Second part, the molecule after the results:

| IC50 [nM] | Structure (SMILES) |
| --- | --- |
| 0.16 | CCN(CC)[C@@H](C)CNC(=O)c1cc(-c2cnn3ccc(-c4cccs4)nc23)nc(N2CCCS2(=O)=O)c1 [Example 167, (S)—N-(2-(diethylamino)propyl)-2-(1,1-dioxidoisothiazolidin-2-yl)-6-(5-(thiophen-2-yl)pyrazolo[1,5-a]pyrimidin-3-yl)isonicotinamide] |
| 0.8 | CCN(CC)[C@@H](C)CNC(=O)c1cc(-c2cnn3ccc(-c4cccs4)nc23)nc(N(C)S(C)(=O)=O)c1 [Example 177, (S)—N-(2-(diethylamino)propyl)-2-((N-methylmethyl)sulfonamido)-6-(5-(thiophen-2-yl)pyrazolo[1,5-a]pyrimidin-3-yl)isonicotinamide] |
| 0.16 | CCN(CC)[C@@H](C)CNC(=O)c1cc(-c2cnn3ccc(-c4cccs4)nc23)nc(N2CC(NS(=O)(=O)CC)C2)c1 [Example 182, (S)—N-(2-(diethylamino)propyl)-2-(3-(ethylsulfonamido)azetidin-1-yl)-6-(5-(thiophen-2-yl)pyrazolo[1,5-a]pyrimidin-3-yl)isonicotinamide] |
| 0.26 | CCN(CC)[C@@H](C)CNC(=O)c1cc(-c2cnn3ccc(-c4cccs4)nc23)nc(N2CC(NS(=O)(=O)C(C)C)C2)c1 [Example 183, (S)—N-(2-(diethylamino)propyl)-2-(3-((1-methylethyl)sulfonamido)azetidin-1-yl)-6-(5-(thiophen-2-yl)pyrazolo[1,5-a]pyrimidin-3-yl)isonicotinamide] |
| 1.16 | CCN(CC)[C@@H](C)CNC(=O)c1cc(-c2cnn3ccc(-c4cccs4)nc23)nc(N2CCNC2=O)c1 [Example 184, (S)—N-(2-(diethylamino)propyl)-2-(2-oxoimidazolidin-1-yl)-6-(5-(thiophen-2-yl)pyrazolo[1,5-a]pyrimidin-3-yl)isonicotinamide] |
| 0.27 | CCN(CC)[C@@H](C)CNC(=O)c1cc(NC(=O)OC(C)C)nc(-c2cnn3ccc(-c4cccs4)nc23)c1 [Example 187, (S)-isopropyl (4-((2-(diethylamino)propyl)carbamoyl)-6-(5-(thiophen-2-yl)pyrazolo[1,5-a]pyrimidin-3-yl)pyridin-2-yl)carbamate] |
| 0.43 | CCC(=O)Nc1cc(C(=O)NC[C@H](C)N(CC)CC)cc(-c2cnn3ccc(-c4cccs4)nc23)n1 [Example 188, (S)—N-(2-(diethylamino)propyl)-2-propionamido-6-(5-(thiophen-2-yl)pyrazolo[1,5-a]pyrimidin-3-yl)isonicotinamide] |
| 0.45 | CCN(CC)[C@@H](C)CNC(=O)c1cc(NC(=O)C(C)C)nc(-c2cnn3ccc(-c4cccs4)nc23)c1 [Example 189, (S)—N-(2-(diethylamino)propyl)-2-isobutyramido-6-(5-(thiophen-2-yl)pyrazolo[1,5-a]pyrimidin-3-yl)isonicotinamide] |
| 0.16 | CCN(CC)[C@@H](C)CNC(=O)c1cc(NC(=O)C2CC2)nc(-c2cnn3ccc(-c4cccs4)nc23)c1 [Example 190, (S)-2-(cyclopropanecarboxamido)-N-(2-(diethylamino)propyl)-6-(5-(thiophen-2-yl)pyrazolo[1,5-a]pyrimidin-3-yl)isonicotinamide] |
| 83.2 | CCN(CC)[C@@H](C)CNC(=O)c1cc(NC2COC2)nc(-c2cnn3ccc(-c4cccs4)nc23)c1 [Example 193, (S)—N-(2-(diethylamino)propyl)-2-(oxetan-3-ylamino)-6-(5-(thiophen-2-yl)pyrazolo[1,5-a]pyrimidin-3-yl)isonicotinamide] |
| 0.19 | CCN(CC)[C@@H](C)CNC(=O)c1cc(-c2cnn3ccc(-c4cccs4)nc23)nc(N2CC(NC(=O)c3ncco3)C2)c1 [Example 194, (S)—N-(1-(4-((2-(diethylamino)propyl)carbamoyl)-6-(5-(thiophen-2-yl)pyrazolo[1,5-a]pyrimidin-3-yl)pyridin-2-yl)azetidin-3-yl)oxazole-2-carboxamide] |
| 0.28 | CCN(CC)[C@@H](C)CNC(=O)c1cc(-c2cnn3ccc(-c4cccs4)nc23)nc(N2CC(NC(=O)N(C)C)C2)c1 [Example 195, (S)—N-(2-(diethylamino)propyl)-2-(3-(3,3-dimethylureido)azetidin-1-yl)-6-(5-(thiophen-2-yl)pyrazolo[1,5-a]pyrimidin-3-yl)isonicotinamide] |
